Results published in patent US12559474B2, “Triazine derivatives having virus replication inhibitory activity and pharmaceutical composition comprising the same” (priority 2021, dated 2026).
Where two headings read alike, the source gives them in different places.

Legend:
[1] = molecular target: SARS-CoV-2 3CL protease (Severe acute respiratory syndrome coronavirus 2, UniProt P0DTD1); assay: biochemical; settings: 50% SARS-CoV-2 3CL protease inhibitory concentration, read-out: IC50
[2] = tested on: SARS-CoV-2; assay: microbe, parasite or virus in culture; format: cell-based; settings: Severe acute respiratory syndrome coronavirus 2, VeroE6/TMPRSS2, 72 h, 50% SARS-CoV-2 infected cell death inhibitory concentration, VeroE6/TMPRSS2 cells, 3 days culture

| Structure (SMILES) | IC50 ([1]; RapidFire MS) [nM] | EC50 ([2]; CellTiter-Glo 2.0) [nM] | IC50 ([1]; given as class symbols) [nM] | EC50 ([2]; class symbols) [nM] |
| --- | --- | --- | --- | --- |
| Cc1ccc(C#N)cc1Cn1c(Nc2ccc3nn(CC(F)(F)F)cc3c2)nc(=O)n(-c2cncc(Cl)c2)c1=O [II-0304] | 4.5 | 213 |  |  |
| COc1ccc(Nc2nc(=O)n(Cc3ccc[nH]c3=O)c(=O)n2Cc2cc(F)c(F)cc2Cl)cc1 [Compound I-0194] |  |  | < 100 | 1000 to 10000 |
| N#Cc1cc(Cn2c(Nc3cc4cn(C(F)F)nc4cc3Cl)nc(=O)n(-c3cncc4ccccc34)c2=O)ccc1F [Compound I-0428] |  |  | < 100 | < 1000 |
| Cc1cncc(-n2c(=O)nc(Nc3cc4sc(NCC(F)F)nc4cc3Cl)n(Cc3ccc(F)c(C#N)c3)c2=O)c1 [II-0524] |  |  | < 100 | 1000 to 10000 |
| CC(=O)Nc1nc2cc(Cl)c(Nc3nc(=O)n(Cc4ncn(C)n4)c(=O)n3Cc3cc(F)c(F)cc3F)cc2s1 [II-0560] |  |  | < 100 | 1000 to 10000 |
| Cn1cnc(Cn2c(=O)nc(Nc3cc4cn(C)nc4cc3Cl)n(Cc3cccc(F)c3Cl)c2=O)n1 [II-0214] |  |  | < 100 | 1000 to 10000 |
| Cc1cncc(-n2c(=O)nc(Nc3ccc4nn(C)cc4c3)n(Cc3cc(F)c(F)c(C#N)c3)c2=O)c1 [II-0573] | 6.1 | 340 |  |  |
| O=c1nc(Nc2cc3cn(CCO)nc3cc2Cl)n(Cc2cc(F)c(F)c(Cl)c2)c(=O)n1Cc1ncccn1 [II-0294] |  |  | < 100 | 1000 to 10000 |
| Cc1cncc(-n2c(=O)nc(Nc3cc4ccnn4cc3Cl)n(Cc3ccc(F)c(C#N)c3)c2=O)c1 [II-0477] |  |  | < 100 | 1000 to 10000 |
| CNc1nc2ccc(Nc3nc(=O)n(-c4cncc(C)c4)c(=O)n3Cc3cc(C#N)ccc3C)cc2s1 [II-0496] |  |  | < 100 | < 1000 |
| O=c1[nH]cccc1Cn1c(=O)nc(Nc2cc3cn(C(F)F)nc3cc2Cl)n(Cc2cc(F)c(F)c(F)c2)c1=O [Compound I-0357] |  |  | < 100 | 1000 to 10000 |
| Cc1cncc(-n2c(=O)nc(Nc3ccc4ncccc4c3)n(Cc3ccc(F)c(C#N)c3)c2=O)c1 [II-0204] |  |  | < 100 | 1000 to 10000 |
| Cn1cnc(Cn2c(=O)nc(Nc3cc4oc(N)nc4cc3Cl)n(Cc3cc(Cl)c(F)cc3F)c2=O)n1 [II-0056] |  |  | < 100 | 1000 to 10000 |
| CNc1nc2cc(Cl)c(Nc3nc(=O)n(-c4cncc(C)c4)c(=O)n3Cc3cc(C#N)ccc3Cl)cc2o1 [II-0545] | 8.6 | 750 |  |  |
| CC(C)(Nc1nc(=O)n(Cc2ccc[nH]c2=O)c(=O)n1Cc1cc(F)c(F)c(F)c1)c1ccccc1F [II-0482] | 410 | 44500 |  |  |
| N#Cc1cnc2[nH]c(=O)c(Cn3c(=O)nc(Nc4ccc5c(c4)CCO5)n(Cc4cc(F)c(F)c(F)c4)c3=O)cc2c1 [II-0322] |  |  | < 100 | 1000 to 10000 |
| Cn1nc2cc(Cl)c(Nc3nc(=O)n(-c4cncc5ccccc45)c(=O)n3Cc3cc(F)c(F)c(F)c3)cc2c1F [II-0462] |  |  | < 100 | < 1000 |
| CNC(=O)Cn1cc2cc(Nc3nc(=O)n(-c4cncc5ccccc45)c(=O)n3Cc3cc(F)c(F)c(F)c3)c(Cl)cc2n1 [II-0509] |  |  | < 100 | 1000 to 10000 |
| Cc1cncc(-n2c(=O)nc(Nc3cc4cn(C)nc4cc3Cl)n(Cc3cc(C#N)ccc3C(F)F)c2=O)c1 [II-0333] |  |  | < 100 | < 1000 |
| Cn1cnc(Cn2c(=O)nc(Nc3cc4cn(C)nc4cc3Cl)n(Cc3ccc(F)c(Cl)c3)c2=O)n1 [II-0050] |  |  | < 100 | < 1000 |
| COC(=O)Nc1nc2cc(Cl)c(Nc3nc(=O)n(Cc4ncn(C)n4)c(=O)n3Cc3cc(Cl)c(F)cn3)cc2s1 [II-0080] |  |  | < 100 | 1000 to 10000 |
| CNc1nc2cc(Cl)c(Nc3nc(=O)n(-c4cncc(Cl)c4)c(=O)n3Cc3cc(C#N)ccc3C)cc2o1 [II-0546] |  |  | < 100 | < 1000 |
| O=c1[nH]cc(Cl)cc1Cn1c(=O)nc(Nc2cc3cn(CCN4CCOCC4)nc3cc2Cl)n(Cc2cc(F)c(F)c(F)c2)c1=O [Compound I-0250] |  |  | < 100 | 1000 to 10000 |
| Cn1cc2cc(Nc3nc(=O)n(-c4cncc(N)c4)c(=O)n3Cc3cc(Cl)c(F)cc3F)c(Cl)cc2n1 [II-0381] |  |  | < 100 | < 1000 |
